Measurements from article PMC7291367, “Insightful Backbone Modifications Preventing Proteolytic Degradation of Neurotensin Analogs Improve NTS1-Induced Protective Hypothermia” (Frontiers in Chemistry, 2020).
Entries after “also recorded” stand apart in the source; their conditions may differ. Where two headings read alike, the source gives them in different places. Numbered stars: 1 amine (or outer) side, 2 acyl side, 3 side chain; on linkers, the order of the positions; unused ones are H or OH. Square brackets hold non-standard residues; d marks the D form. Peptide text beside a SMILES is read from it. X1 = NCCCC[C@H](N)CN([C@@H](CCCCN)C(=O)[*:2])[*:1]; Ala(SiMe3) = C[Si](C)(C)C[C@H](N)C(=O)O; X2 = C[Si]1(C)CC(C(=O)[*:2])N([*:1])C1

Legend:
[1] = target: hNTS2 (Homo sapiens, UniProt O95665); assay: Competitive radioligand binding assay, 125I-[Tyr3]-NT displacement, 1321N1 cell membranes; settings: for NTS1/NTS2 selectivity: ratio of Ki hNTS1 to Ki hNTS2; for fold decrease in NTS2 binding affinity: compared to NT(8-13)
Sequence of hNTS2 (O95665 whole entry): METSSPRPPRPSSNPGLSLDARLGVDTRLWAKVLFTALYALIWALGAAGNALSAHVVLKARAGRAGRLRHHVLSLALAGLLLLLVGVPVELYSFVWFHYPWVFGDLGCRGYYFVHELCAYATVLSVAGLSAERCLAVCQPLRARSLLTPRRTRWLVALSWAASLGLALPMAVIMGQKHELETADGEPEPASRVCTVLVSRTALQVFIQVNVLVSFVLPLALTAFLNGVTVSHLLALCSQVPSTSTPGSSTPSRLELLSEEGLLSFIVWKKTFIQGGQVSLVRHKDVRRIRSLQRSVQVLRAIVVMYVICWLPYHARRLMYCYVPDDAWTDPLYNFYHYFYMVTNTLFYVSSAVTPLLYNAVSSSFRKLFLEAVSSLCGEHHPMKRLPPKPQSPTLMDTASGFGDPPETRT
Protocol: (§1) All media and additives are from Wisent (St-Bruno, QC). […] After 1 h of incubation at room temperature, the binding reaction mixture was transferred in polyethylenimine-coated 96-well-filter plates (Millipore, Billerica, MA). Reaction was terminated by filtration, and plates were washed three times with 200 μl of ice-cold binding buffer. […] Data were plotted using GraphPad Prism 8 using the One-site—Fit log (IC50) and represent the mean ± SEM of at least three separate experiments performed in triplicate.

[2] = Plasma stability assay (UPLC/MS); type: in vitro ADME; settings: 37°C; for half-life at 0.156 mM: rat; for Plasma stability (Half-life): rat plasma, 0.156 mM
Protocol: Rat plasma was obtained from blood by keeping the translucent phase after centrifugation at 15,000 g over 5 min. Plasma stability assay was carried out by incubating each compound at different incubation times in rat plasma at a final concentration of 0.156 mM. […] Then, 70 μl of a solution containing 10% trichloroacetic acid (TCA) and 0.5% nicotinamine, an internal standard, was added to stop the degradation by proteases. After centrifugation at 15,000 g for 30 min, supernatant was filtered through 0.22-μm filter and analyzed by UPLC/MS (Water H Class Acquity UPLC, mounted with Acquity UPLC BEH C18 column, 1.7 μm, 2.1 × 50 mm and paired to a SQ Detector 2). Compounds 1, 2, and 5 were analyzed using the mass or UV spectrum. Quantification was done by determining the area under the curve (AUC) ratio of each compound over AUC of nicotinamine for each incubation time. Data were plotted into GraphPad Prism 8 and the half-life of each compound was calculated using one-phase decay fit and represented the mean ± SEM of minimum three separate experiments.

[3] = system: Sprague-Dawley rats; assay: Body temperature measurement after intrathecal injection; type: in vivo; settings: rat; for effect on body temperature / temperature drop: 30 μg/kg i.t.; for effect on body temperature: compared to the saline-treated group; for Hypothermia ΔTemp: 30 μg/kg, i.t., change in body temperature from baseline at 60 min; for temperature drop: for up to 60 min
Source text: The experimental procedures in this study were approved by the Animal Care Committee of the Université de Sherbrooke (protocol n°035-18B) and were in accordance with policies and directives of the Canadian Council on Animal Care. Adult male Sprague-Dawley rats, weighing 175–225 g (Charles River laboratories, St-Constant, Québec, Canada), were maintained on a 12-h light/dark cycle with free access to food and water and were housed two per cage on Aspen shavings in a quiet room.
Rats were lightly anesthetized with isoflurane/oxygen (Baxter corporation, Mississauga, ON, Canada; 2 L/min) flow and 25 μl of each compound were injected intrathecally with a 27-G 1/2 needle (BD PrecisionGlide, USA) into the subarachnoid space between vertebrae L5 and L6. Analogs 1–14 were diluted in physiological saline at 5 mg/ml, whereas compounds 15 and 16 were diluted in DMSO. For body temperature measurement, the injected solution of these both compounds contained 6% DMSO at final concentration (30 μg/kg).
Three consecutive days prior to testing, animals were individually acclimatized to manipulations and to a thermistor probe 5 min per day. The day of the test, experiments were always performed in a quiet room and between 8:00 and 12:00 PM. to reduce any variation related to the circadian rhythm. Body temperature was measured using a thermistor probe inserted into the rectum of adult Sprague-Dawley rats. Temperatures were recorded immediately before (baseline) and each 10 min for up to 60 min following intrathecal administration of saline, vehicle (6% DMSO) or NT analogs at 30 μg/kg. Changes in body temperature (Δ body temp) from baseline were determined for each animal. Data are expressed as mean ± SEM of 5 to 20 animals per condition.
Data are expressed as mean ± standard errors of the mean (SEM). All graphs and statistical analysis were performed using GraphPad Prism 8 (GraphPad software, La Jolla, CA, USA). A two-way ANOVA followed by Bonferroni's multiple comparisons test was used to determine significant differences between drug- and vehicle-treated rats at different timepoints post-injection.

[4] = target: hNTS1 (Homo sapiens, UniProt P30989); assay: Competitive radioligand binding assay, 125I-[Tyr3]-NT displacement, CHO-K1 cell membranes; settings: for fold decrease in NTS1 binding affinity: compared to NT(8-13)
Sequence of hNTS1 (P30989 whole entry): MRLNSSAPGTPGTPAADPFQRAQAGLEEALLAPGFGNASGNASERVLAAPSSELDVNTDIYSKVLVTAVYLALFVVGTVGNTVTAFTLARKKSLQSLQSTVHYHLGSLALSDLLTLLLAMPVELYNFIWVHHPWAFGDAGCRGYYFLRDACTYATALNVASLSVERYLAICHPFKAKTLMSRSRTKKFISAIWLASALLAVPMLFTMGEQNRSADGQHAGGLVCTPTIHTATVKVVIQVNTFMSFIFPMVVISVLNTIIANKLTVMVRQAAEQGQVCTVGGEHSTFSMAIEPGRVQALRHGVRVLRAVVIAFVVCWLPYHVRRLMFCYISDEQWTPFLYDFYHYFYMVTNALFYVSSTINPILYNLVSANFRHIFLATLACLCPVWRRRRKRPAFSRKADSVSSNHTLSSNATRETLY
Protocol: as §1

[5] = mean ± SEM, at least three experiments, Cheng-Prusoff from IC50, read-out: Binding, Ki hNTS2

Compound	Ki [1]	effect on body temperature [3]	Hypothermia ΔTemp [3]	Ki [4]	NTS1/NTS2 selectivity [1]	half-life at 0.156 mM ([2]; plasma, incubation up to 24 h)	also measured
CC[C@H](C)[C@H](NC(=O)[C@H](Cc1ccc(O)cc1)NC(=O)[C@@H]1CCCN1C(=O)[C@H](CCCCN)NC(=O)[C@@H](N)CCCCN)C(=O)N[C@@H](CC(C)C)C(=O)O [Compound 1, H-Lys-Lys-Pro-Tyr-Ile-Leu-OH]	1.1 ± 0.2 nM	not effective in reducing the body temperature; also recorded: not effective to induce drop in body temperature	0.27 ±0.2 °C				half-life at 0.156 mM ([2]; short incubation times): 0.0267 ± 0.005 h
CC[C@H](C)[C@H](NC(=O)[C@H](Cc1ccc(O)cc1)NC(=O)[C@@H]1CCCN1C(=O)[C@H](CCCCN)NC[C@@H](N)CCCCN)C(=O)N[C@@H](CC(C)C)C(=O)O [Compound 2, H-LysΨ[CH2NH]Lys-Pro-Tyr-Ile-Leu-OH] (H-[X1]PYIL-OH)				2 ± 0.8 nM	6		Ki [1, 5]: 0.31 ± 0.08 nM; Plasma stability (Half-life) ([2]; short incubation times): 0.14 ± 0.0333 h; half-life at 0.156 mM ([2]; plasma, short incubation times): < 0.167 h
CC[C@H](C)[C@H](NC(=O)[C@H](Cc1ccc(O)cc1)NC(=O)[C@@H]1CCCN1C(=O)[C@H](CCCCN)NC[C@@H](N)CCCCN)C(=O)N[C@@H](C[Si](C)(C)C)C(=O)O [Compound 4, H-Lysψ[CH2NH]Lys-Pro-Tyr-Ile-TMSAla-OH] (H-[X1]PYI[Ala(SiMe3)]-OH)	0.55 ± 0.1 nM	long-lasting hypothermia	−2.0 ± 0.10 °C	2.5 ± 0.2 nM	4.5	2 ± 0.2 h	fold decrease (loss) of affinity at NTS1 ([4]; compared to 3): 140 fold; temperature drop [3]: more than 2 °C
CC[C@H](C)[C@H](NC(=O)[C@H](Cc1ccc(O)cc1)NC(=O)C1C[Si](C)(C)CN1C(=O)[C@H](CCCCN)NC(=O)[C@@H](N)CCCCN)C(=O)N[C@@H](CC(C)C)C(=O)O (stereo partly drawn) [Compound 5, H-Lys-Lys-Sip-Tyr-Ile-Leu-OH] (H-KK[X2]YIL-OH)		not effective in reducing the body temperature; also recorded: not effective to induce drop in body temperature	−0.07 ± 0.2 °C				
CC[C@H](C)[C@H](NC(=O)[C@H](Cc1ccc(O)cc1)NC(=O)C1C[Si](C)(C)CN1C(=O)[C@H](CCCCN)NC[C@@H](N)CCCCN)C(=O)N[C@@H](CC(C)C)C(=O)O (stereo partly drawn) [Compound 6, H-Lysψ[CH2NH]Lys-Sip-Tyr-Ile-Leu-OH]	130 ± 30 nM	slight decrease in core body temperature; also recorded: hypothermic response	−2.2 ± 0.3 °C	300 ± 50 nM	2.3	22 ± 2 h	fold decrease in NTS1 binding affinity [4]: 200 fold; fold decrease in NTS2 binding affinity [1]: ~50 fold
CC[C@H](C)[C@H](NC(=O)[C@H](Cc1ccc(O)cc1)NC(=O)C1C[Si](C)(C)CN1C(=O)[C@H](CCCCN)NC(=O)[C@@H](N)CCCCN)C(=O)N[C@@H](C[Si](C)(C)C)C(=O)O (stereo partly drawn) [Compound 7, H-Lys-Lys-Sip-Tyr-Ile-TMSAla-OH] (H-KK[X2]YI[Ala(SiMe3)]-OH)	16 ± 4 nM	not effective in reducing the body temperature; also recorded: not effective to induce drop in body temperature	−0.30 ± 0.6 °C	55 ± 5 nM	3.4		fold decrease in NTS1 binding affinity [4]: 35 fold; fold decrease in NTS2 binding affinity [1]: 6 fold
CC[C@H](C)[C@H](NC(=O)[C@H](Cc1ccc(O)cc1)NC(=O)C1C[Si](C)(C)CN1C(=O)[C@H](CCCCN)NC[C@@H](N)CCCCN)C(=O)N[C@@H](C[Si](C)(C)C)C(=O)O (stereo partly drawn) [Compound 8, H-LysΨ[CH2NH]Lys-Sip-Tyr-Ile-TMSAla-OH]						> 20 h	
CC[C@H](C)[C@H](NC(=O)[C@H](CCCCN)NC(=O)[C@@H]1CCCN1C(=O)[C@H](CCCCN)NC[C@@H](N)CCCCN)C(=O)N[C@@H](CC(C)C)C(=O)O [Compound 10, H-LysΨ[CH2NH]Lys-Pro-Lys-Ile-Leu-OH] (H-[X1]PKIL-OH)						5 ± 0.2 h	
CC[C@H](C)[C@H](NC(=O)[C@H](CCCCN)NC(=O)[C@@H]1CCCN1C(=O)[C@H](CCCCN)NC(=O)[C@@H](N)CCCCN)C(=O)N[C@@H](C[Si](C)(C)C)C(=O)O [Compound 11, H-Lys-Lys-Pro-Lys-Ile-TMSAla-OH] (H-KKPKI[Ala(SiMe3)]-OH)	76 ± 20 nM	did not induce hypothermia; also recorded: did not cause drop in body temperature	0.04 ± 0.2 °C	710 ± 100 nM	9.3		fold increase in affinity toward NTS1 ([4]; compared to 9): 10 fold; fold increase in affinity toward NTS2 ([1]; compared to 9): 4 fold
CC[C@H](C)[C@H](NC(=O)[C@@H](Cc1c[nH]c2ccccc12)NC(=O)[C@@H]1CCCN1C(=O)[C@H](CCCCN)NC(=O)[C@@H](N)CCCCN)C(=O)N[C@@H](C[Si](C)(C)C)C(=O)O [Compound 13, H-Lys-Lys-Pro-D-Trp-Ile-TMSAla-OH] (H-KKP[dW]I[Ala(SiMe3)]-OH)	8.5 ± 2 nM				423		selectivity toward NTS2 ([1]; NTS2 over NTS1, text): > 420 fold; Plasma stability (Half-life) ([2]; short incubation times): 0.167 ± 0.033 h; half-life at 0.156 mM ([2]; plasma, short incubation times): < 0.167 h
CC[C@H](C)[C@H](NC(=O)[C@@H](Cc1c[nH]c2ccccc12)NC(=O)[C@@H]1CCCN1C(=O)[C@H](CCCCN)NC[C@@H](N)CCCCN)C(=O)N[C@@H](C[Si](C)(C)C)C(=O)O [Compound 14, H-Lysψ[CH2NH]Lys-Pro-D-Trp-Ile-TMSAla-OH] (H-[X1]P[dW]I[Ala(SiMe3)]-OH)	3.5 ± 0.6 nM	long-lasting hypothermia	−1.8 ± 0.2 °C	55 ± 3 nM	16	> 20 h	fold increase in binding to NTS1 ([4]; compared to 13 (addition of reduced amine bond)): 65 fold; temperature drop [3]: more than 2 °C
CC[C@H](C)[C@H](NC(=O)[C@H](Cc1ccc(O)cc1)NC(=O)[C@@H]1CCCN1C(=O)[C@H](CCCNC(=N)N)NC(=O)[C@@H](N)CCCNC(=N)N)C(=O)N[C@@H](CC(C)C)C(=O)O [NT(8-13), H-Arg-Arg-Pro-Tyr-Ile-Leu-OH, reference compound]							half-life at 0.156 mM ([2]; short incubation times): 0.0167 ± 0.00167 h
H-KKPKIL-OH [Compound 9, H-Lys-Lys-Pro-Lys-Ile-Leu-OH]		did not induce hypothermia; also recorded: did not cause drop in body temperature	0.32 ± 0.2 °C		25		fold decrease in NTS1 binding affinity [4]: more than 5,000 fold; fold decrease in NTS2 binding affinity [1]: > 110 fold; Ki [1, 5]: 310 ± 100 nM
